Experimental data as given in ChEMBL document CHEMBL1201862, “PubChem BioAssay data set” (2004).
The source made the active and inactive calls.

Experiments:
[1] = molecular target: Peroxisome proliferator-activated receptor gamma/Nuclear receptor coactivator 2 (Homo sapiens, UniProt P37231); experiment: (§1) TR-FRET dose response biochemical High Throughput Screening assay for agonists of the steroid receptor coactivator 2 (SRC-2) recruitment by the peroxisome proliferator-activated receptor gamma (PPAR gamma): non-selective agonists. [Related pubchem assays: 1297, 1032 ]; assay type: functional
Chain of Peroxisome proliferator-activated receptor gamma/Nuclear receptor coactivator 2 (P37231 whole entry): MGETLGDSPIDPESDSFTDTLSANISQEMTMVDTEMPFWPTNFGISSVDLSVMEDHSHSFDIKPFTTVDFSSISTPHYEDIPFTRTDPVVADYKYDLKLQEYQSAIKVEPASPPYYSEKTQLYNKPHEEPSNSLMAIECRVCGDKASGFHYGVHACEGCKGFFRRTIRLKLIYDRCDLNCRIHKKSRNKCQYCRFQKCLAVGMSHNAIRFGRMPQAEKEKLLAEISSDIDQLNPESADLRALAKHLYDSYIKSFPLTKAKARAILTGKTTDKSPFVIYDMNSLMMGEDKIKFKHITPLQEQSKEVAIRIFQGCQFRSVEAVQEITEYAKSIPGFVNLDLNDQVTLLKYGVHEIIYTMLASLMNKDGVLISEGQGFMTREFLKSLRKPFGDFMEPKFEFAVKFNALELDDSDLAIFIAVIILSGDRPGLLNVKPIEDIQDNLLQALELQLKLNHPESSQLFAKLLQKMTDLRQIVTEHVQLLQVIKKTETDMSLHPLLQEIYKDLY
Chain of Peroxisome proliferator-activated receptor gamma/Nuclear receptor coactivator 2 (Q15596 whole entry, further chain): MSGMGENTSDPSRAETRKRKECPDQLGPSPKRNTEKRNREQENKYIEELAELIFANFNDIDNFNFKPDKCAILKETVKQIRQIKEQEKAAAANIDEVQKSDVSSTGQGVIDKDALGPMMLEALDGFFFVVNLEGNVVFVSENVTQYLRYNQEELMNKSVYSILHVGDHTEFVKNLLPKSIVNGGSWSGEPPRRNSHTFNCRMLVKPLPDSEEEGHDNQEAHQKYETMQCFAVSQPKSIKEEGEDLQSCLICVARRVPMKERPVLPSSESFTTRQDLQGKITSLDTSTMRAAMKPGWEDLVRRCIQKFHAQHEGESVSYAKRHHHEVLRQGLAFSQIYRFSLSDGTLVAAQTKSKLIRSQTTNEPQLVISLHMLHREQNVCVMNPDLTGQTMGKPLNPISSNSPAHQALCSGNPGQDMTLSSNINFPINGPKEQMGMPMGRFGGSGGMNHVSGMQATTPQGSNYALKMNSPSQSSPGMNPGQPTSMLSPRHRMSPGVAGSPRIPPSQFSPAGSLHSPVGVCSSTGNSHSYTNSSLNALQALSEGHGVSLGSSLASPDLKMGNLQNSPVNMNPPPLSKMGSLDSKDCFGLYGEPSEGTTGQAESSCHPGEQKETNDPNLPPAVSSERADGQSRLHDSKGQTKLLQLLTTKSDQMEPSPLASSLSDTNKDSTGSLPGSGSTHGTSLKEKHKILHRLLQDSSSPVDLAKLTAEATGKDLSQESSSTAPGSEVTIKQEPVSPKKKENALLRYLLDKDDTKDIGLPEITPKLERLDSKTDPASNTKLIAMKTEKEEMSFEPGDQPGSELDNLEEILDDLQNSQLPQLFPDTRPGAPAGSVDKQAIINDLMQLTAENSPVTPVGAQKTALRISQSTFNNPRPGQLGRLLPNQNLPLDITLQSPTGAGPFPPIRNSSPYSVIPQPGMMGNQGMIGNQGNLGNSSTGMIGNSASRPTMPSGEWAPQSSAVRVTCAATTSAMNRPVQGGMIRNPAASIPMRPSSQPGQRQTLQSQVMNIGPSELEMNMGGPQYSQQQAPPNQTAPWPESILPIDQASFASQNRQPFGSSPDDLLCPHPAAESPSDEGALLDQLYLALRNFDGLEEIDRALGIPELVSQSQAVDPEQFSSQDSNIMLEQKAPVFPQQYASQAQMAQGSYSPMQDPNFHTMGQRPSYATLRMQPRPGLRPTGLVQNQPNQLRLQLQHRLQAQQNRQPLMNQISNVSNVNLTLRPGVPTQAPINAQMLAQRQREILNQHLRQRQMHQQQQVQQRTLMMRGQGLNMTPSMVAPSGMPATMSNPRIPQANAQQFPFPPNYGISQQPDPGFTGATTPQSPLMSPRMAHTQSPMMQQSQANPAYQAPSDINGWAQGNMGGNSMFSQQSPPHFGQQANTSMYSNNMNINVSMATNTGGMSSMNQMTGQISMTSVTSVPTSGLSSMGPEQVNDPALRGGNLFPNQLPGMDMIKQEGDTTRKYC

[2] = molecular target: Peroxisome proliferator-activated receptor gamma/Nuclear receptor coactivator 3 (Homo sapiens, UniProt P37231); experiment: as §1, with “3 (SRC-3)” for “2 (SRC-2)”, “1301 (Confirmation screen.), 1048 (Primary screen.)]” for “1297, 1032 ]”; assay type: functional
[3] = molecular target: Cytochrome P450 2C9 (Homo sapiens, UniProt P11712)
Chain of Cytochrome P450 2C9 (P11712 whole entry): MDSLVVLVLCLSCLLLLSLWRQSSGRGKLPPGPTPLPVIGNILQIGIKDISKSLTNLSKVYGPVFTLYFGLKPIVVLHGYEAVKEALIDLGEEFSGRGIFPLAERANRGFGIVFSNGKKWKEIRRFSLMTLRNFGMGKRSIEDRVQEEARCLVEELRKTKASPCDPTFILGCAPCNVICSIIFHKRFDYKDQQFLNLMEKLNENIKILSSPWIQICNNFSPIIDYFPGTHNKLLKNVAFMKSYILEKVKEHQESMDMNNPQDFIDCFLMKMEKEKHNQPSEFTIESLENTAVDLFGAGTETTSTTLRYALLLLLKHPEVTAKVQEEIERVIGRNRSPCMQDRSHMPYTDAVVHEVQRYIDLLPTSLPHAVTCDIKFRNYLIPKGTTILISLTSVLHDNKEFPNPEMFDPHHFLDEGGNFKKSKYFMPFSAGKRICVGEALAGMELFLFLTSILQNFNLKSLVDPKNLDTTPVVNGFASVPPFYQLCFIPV

[4] = molecular target: Peroxisome proliferator-activated receptor gamma/Nuclear receptor coactivator 1 (Homo sapiens, UniProt P37231); experiment: as §1, with “1 (SRC-1)” for “2 (SRC-2)”, “assays (depositor defined):AID1300, AID1808, AID504735, AID631]” for “assays: 1297, 1032 ]”; assay type: protein assay
[5] = molecular target: T1, Protein RecA (Mycobacterium tuberculosis, UniProt P9WHJ3); experiment: Fluorescence Cell-Free Homogeneous Dose Retest to Identify Inhibitors of RecA-Intein Splicing Activity. [Related pubchem assays (depositor defined):AID2097, AID2223, AID489010, AID492950]; assay type: functional
T1 sequence (P9WHJ3 whole entry): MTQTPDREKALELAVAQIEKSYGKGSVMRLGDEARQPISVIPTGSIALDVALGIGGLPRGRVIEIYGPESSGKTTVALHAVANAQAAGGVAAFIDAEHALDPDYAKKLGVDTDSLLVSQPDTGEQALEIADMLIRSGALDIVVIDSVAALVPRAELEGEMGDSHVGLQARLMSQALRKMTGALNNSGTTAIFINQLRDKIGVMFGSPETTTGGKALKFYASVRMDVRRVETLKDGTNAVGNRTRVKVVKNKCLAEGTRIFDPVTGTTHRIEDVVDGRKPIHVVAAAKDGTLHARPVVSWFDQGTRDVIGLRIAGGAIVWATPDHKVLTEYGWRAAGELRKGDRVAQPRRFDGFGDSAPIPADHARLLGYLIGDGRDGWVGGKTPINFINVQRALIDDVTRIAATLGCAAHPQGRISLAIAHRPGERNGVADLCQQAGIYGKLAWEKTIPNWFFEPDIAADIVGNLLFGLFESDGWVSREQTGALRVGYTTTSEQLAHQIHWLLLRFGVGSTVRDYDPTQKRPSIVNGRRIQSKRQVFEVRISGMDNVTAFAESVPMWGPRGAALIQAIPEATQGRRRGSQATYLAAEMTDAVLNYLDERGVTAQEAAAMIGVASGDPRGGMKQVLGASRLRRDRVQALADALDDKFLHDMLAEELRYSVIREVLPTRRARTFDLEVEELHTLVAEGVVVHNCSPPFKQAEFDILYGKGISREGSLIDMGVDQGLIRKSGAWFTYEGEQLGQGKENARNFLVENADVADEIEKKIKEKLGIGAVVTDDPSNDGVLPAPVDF

[6] = molecular target: T2, Replicative DNA helicase DnaB (Mycobacterium tuberculosis, UniProt P9WMR3); experiment: DnaB intein splicing inhibitors, dose response, biochemical, cell-free fluorescence (AID 449749); assay type: functional
T2 sequence (P9WMR3 whole entry): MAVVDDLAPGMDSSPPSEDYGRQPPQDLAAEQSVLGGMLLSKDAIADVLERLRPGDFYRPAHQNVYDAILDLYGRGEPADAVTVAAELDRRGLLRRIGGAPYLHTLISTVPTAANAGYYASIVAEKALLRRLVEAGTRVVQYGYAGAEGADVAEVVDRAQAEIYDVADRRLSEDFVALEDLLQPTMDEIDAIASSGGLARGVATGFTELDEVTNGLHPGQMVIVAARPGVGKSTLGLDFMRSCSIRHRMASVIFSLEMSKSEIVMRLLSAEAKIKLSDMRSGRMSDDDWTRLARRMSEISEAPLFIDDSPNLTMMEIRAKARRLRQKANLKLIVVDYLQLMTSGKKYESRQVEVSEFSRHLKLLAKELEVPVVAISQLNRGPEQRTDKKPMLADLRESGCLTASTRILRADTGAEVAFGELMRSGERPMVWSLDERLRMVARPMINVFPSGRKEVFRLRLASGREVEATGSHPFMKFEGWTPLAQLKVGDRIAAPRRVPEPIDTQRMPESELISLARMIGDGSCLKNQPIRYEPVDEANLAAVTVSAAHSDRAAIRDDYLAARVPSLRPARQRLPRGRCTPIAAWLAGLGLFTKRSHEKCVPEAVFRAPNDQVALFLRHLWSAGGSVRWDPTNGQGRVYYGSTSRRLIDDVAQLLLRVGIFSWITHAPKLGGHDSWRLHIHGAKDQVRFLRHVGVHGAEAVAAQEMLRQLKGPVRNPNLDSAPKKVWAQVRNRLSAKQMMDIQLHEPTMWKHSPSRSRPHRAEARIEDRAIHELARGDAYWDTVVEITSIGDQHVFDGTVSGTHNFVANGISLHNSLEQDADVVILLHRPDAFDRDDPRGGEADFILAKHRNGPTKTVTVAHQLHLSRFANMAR

[7] = molecular target: T3, Fatty acid synthase (Homo sapiens, UniProt P49327); experiment: inhibition of human FAS-TE enzyme activity – biochemical, endpoint fluorescence intensity, uHTS hits, dose response (AID 624327); assay type: functional;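 further: fluorescence from hydrolysis of an O-methyl fluorescein acyl ester substrate by the enzyme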
T3 sequence (P49327 whole entry): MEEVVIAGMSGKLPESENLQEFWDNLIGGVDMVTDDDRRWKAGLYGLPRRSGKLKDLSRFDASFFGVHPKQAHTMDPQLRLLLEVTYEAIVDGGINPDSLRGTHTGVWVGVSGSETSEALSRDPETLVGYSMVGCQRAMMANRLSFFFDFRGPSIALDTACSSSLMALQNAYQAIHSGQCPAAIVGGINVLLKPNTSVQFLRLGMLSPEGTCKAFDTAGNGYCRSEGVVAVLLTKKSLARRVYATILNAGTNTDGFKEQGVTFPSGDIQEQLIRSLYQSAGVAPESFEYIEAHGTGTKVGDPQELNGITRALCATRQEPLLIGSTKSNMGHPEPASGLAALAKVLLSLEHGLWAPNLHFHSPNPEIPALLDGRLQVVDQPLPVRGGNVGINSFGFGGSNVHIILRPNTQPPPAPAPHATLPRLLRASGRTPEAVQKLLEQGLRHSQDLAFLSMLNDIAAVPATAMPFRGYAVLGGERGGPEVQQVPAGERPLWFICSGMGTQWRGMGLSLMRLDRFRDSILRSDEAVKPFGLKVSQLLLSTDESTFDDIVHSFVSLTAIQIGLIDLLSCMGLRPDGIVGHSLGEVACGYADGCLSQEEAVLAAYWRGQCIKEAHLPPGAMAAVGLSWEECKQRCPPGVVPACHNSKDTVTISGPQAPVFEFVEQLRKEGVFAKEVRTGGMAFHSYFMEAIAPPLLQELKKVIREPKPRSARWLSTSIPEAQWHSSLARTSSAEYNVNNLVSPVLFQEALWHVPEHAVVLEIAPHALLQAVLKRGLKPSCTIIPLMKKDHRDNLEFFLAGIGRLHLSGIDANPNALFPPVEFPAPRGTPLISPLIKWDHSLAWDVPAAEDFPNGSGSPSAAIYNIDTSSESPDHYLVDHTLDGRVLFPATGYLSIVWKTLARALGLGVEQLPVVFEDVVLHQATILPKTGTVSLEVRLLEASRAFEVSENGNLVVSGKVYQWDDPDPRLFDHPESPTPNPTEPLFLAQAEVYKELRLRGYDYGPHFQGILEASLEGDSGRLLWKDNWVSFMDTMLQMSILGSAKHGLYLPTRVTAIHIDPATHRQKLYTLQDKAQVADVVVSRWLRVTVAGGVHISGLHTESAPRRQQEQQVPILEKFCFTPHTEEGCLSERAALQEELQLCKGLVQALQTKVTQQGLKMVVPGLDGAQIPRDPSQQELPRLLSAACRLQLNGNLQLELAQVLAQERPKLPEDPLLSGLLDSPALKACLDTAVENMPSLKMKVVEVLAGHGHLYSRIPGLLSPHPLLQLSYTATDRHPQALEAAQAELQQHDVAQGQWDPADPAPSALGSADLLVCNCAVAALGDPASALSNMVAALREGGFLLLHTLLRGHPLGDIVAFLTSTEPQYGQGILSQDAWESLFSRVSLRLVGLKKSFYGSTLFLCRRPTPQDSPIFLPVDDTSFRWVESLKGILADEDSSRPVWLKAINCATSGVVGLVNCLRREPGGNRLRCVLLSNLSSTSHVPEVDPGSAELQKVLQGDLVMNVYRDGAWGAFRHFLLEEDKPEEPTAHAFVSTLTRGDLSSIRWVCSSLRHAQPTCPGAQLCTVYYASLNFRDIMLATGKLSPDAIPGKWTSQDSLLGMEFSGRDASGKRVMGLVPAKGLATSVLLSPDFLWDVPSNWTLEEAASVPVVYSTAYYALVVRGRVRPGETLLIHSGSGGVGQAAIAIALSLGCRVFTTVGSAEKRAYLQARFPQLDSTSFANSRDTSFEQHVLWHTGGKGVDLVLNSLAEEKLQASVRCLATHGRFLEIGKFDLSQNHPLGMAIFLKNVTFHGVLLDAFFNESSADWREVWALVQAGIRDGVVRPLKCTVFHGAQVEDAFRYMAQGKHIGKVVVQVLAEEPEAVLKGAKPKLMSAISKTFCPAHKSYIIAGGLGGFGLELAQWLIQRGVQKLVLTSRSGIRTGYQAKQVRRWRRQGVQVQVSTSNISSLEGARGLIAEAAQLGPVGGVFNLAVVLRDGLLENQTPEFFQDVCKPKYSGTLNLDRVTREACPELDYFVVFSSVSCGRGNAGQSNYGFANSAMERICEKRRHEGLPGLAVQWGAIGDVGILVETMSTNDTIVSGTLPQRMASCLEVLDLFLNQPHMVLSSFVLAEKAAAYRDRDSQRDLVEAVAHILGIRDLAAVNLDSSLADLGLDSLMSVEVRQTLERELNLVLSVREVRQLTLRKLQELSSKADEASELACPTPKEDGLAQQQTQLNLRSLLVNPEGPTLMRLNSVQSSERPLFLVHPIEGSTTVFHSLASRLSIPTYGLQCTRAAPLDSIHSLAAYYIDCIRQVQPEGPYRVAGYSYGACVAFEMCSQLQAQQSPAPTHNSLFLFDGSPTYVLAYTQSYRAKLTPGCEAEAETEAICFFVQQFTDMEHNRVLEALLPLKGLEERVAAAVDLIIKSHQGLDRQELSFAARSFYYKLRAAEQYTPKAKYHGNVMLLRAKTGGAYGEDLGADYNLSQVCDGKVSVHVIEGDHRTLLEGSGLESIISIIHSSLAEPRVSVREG

[8] = molecular target: T3, Fatty acid synthase; experiment: inhibition of human FAS-TE enzyme activity – biochemical, kinetic fluorescence intensity, dose response (AID 624326); assay type: functional;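 further: rate of fluorescence rise from hydrolysis of a fluorogenic O-methyl fluorescein ester substrate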
[9] = molecular target: T4, Microphthalmia-associated transcription factor (Homo sapiens, UniProt O75030); experiment: reducers of TRPM1 reporter luminescence, concentration series – cell-based, SK-MEL-5, cherry-picked, set 3, MITF inhibitor project, dose response (AID 493073); assay type: functional;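 further: SK-MEL-5 melanoma cells with luciferase driven by the MITF target TRPM1 promoter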
T4 sequence (O75030 whole entry): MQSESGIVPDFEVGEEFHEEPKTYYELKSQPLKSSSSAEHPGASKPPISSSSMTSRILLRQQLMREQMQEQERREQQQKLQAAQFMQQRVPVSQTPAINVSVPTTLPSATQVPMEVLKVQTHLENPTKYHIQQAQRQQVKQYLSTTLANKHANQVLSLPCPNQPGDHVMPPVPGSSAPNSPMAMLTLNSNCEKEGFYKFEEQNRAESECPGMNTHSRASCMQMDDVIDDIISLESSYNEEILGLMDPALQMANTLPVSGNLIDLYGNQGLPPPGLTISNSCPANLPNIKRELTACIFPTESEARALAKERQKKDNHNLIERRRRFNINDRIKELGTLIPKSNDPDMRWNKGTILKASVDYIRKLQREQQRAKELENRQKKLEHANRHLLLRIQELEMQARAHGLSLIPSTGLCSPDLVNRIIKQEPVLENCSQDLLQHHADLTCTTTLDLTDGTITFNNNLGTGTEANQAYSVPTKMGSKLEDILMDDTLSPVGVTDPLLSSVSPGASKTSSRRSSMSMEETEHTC

[10] = test system: HeLa; experiment: ATP-based viability loss in HeLa cells – cell-based, CellTiter-Glo luminescence, cherry-pick samples, cytotoxicity control for MITF activator project, dose response (AID 540259); assay type: functional; settings: Homo sapiens
[11] = test system: HEK293; experiment: EBV LMP1 TES2 canonical NF-kB signalling blockers – cell-based, HEK293, luciferase, cherry-pick, dose response (AID 588343); assay type: functional; settings: Homo sapiens
[12] = molecular target: T5, Cytochrome P450 3A4 (Homo sapiens, UniProt P08684);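 further: CYP3A4 tested as one member of a cytochrome P450 panel screen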
[13] = Trypanosoma cruzi growth suppression in host cells – NIH3T3 host cells, beta-gal luminescence, confirmation (AID 2044); assay type: functional, cell-based;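 further: intracellular parasites grown in NIH/3T3 mouse fibroblasts as host cells; luminescent beta-galactosidase reporter signal from transgenic T. cruzi replicating inside host cells; inhibitors lower the luminescence signal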
[14] = NIH3T3 cell viability loss – ATP luminescence, mouse fibroblasts, counter-screen, dose response (AID 2010); assay type: functional, cell-based;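 further: cells exposed to compound for about 90 hours before reading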
[15] = test system: INS1; experiment: INS-1E survival protection against cytokine death – cell-based, luminescence, retest, dose response (AID 449756); assay type: functional; settings: Rattus norvegicus;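 further: cell death triggered by IL-1 beta plus TNF-alpha plus IFN-gamma mixture; protective hits raise ATP signal compared with cytokine alone wells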
[16] = non-specific 3'UTR reporter inhibition in Clone20-Shn3RL – cell-based, Renilla luciferase, cherry-picked, counter-screen for Shn3 inhibitor project, dose response (AID 624133); assay type: functional
[17] = reduction of Shn3 3'UTR-driven luciferase in osteoblasts – cell-based, Clone20 osteoblasts, firefly luciferase, cherry-picked, dose response (AID 624132); assay type: functional;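 further: firefly luciferase luminescence from reporter carrying the Shn3 3'UTR in osteoblasts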
[18] = molecular target: T5, Cytochrome P450 3A4; remark: listed apart in the source
[19] = loss of viability in HepG2 cells – cell-based, CellTiter-Glo, cherry-picked, cytotoxicity control for Shn3 inhibitor project, dose response (AID 624134); assay type: functional
[20] = molecular target: 72 kDa type IV collagenase (Homo sapiens, UniProt P08253); experiment: Dose Response validation of uHTS RPN11 inhibitor hits using a MMP-2 Fluorescence assay.; assay type: functional
[21] = molecular target: 26S proteasome non-ATPase regulatory subunit 14 (Homo sapiens, UniProt O00487); experiment: inhibition of proteasome subunit RPN11 – biochemical, fluorescence polarization, uHTS hits, confirmation (AID 602368); assay type: functional
[22] = molecular target: Prothrombin (Bos taurus, UniProt P00735); experiment: thrombin protease inhibitors – biochemical, fluorescence polarization, uHTS hits, dose response (AID 602369); assay type: functional
[23] = Luminescence Cell-Based Dose Confirmation HTS to Identify Activators of 5'UTR Stem-Loop Driven Alpha-Synuclein mRNA Translation in H4 Neuroglioblastoma Cells. [Related pubchem assays: 1829 (Project Summary), 1814 (Primary HTS)]; assay type: functional
[24] = Luminescence Cell-Based Dose Response HTS to Identify Activators of Luciferase Translation or Activity in H4 […] Cells. [Related pubchem assays: 1829 (Project Summary), 1814 (Primary HTS)]; assay type: functional
[25] = test system: H4; experiment: Luminescence Cell-Based Dose Response HTS to Identify Activators of 5'UTR Stem-Loop Driven Prion Protein mRNA Translation in H4 Neuroglioblastoma Cells. [Related pubchem assays: 1829 (Project Summary), 1814 (Primary HTS)]; assay type: functional; settings: Homo sapiens
[26] = molecular target: Glucose-6-phosphate 1-dehydrogenase (Homo sapiens, UniProt P11413); experiment: inhibition of Homo sapiens G6PD, dose series – biochemical, fluorescence, selectivity assay for P. falciparum G6PD inhibitor project, dose response (AID 504792); assay type: functional

Question: Which results are given for `O=c1c2c(-c3cccs3)csc2[nH]c(=S)n1-c1ccccc1`?
Answer: EC50 [1]: 11.6 µM (not active); EC50 [2]: > 79.4 µM (not active); AC50 [3]: 8.91 µM (inconclusive); EC50 [4]: 12.8 µM (inactive)

Question: For `CC(=O)N(C1CC(C)C(C#N)(C#N)C1(C#N)C#N)N(C)C` (configuration not stated), which EC50 [5] is on record?
Answer: 3.17 µM (active)

Question: And the AC50 [6]?
Answer: 1.68 µM (active)

Question: What about the IC50 [7] of the same molecule?
Answer: 8.68 µM (active)

Question: And the IC50 [8]?
Answer: 6.1 µM (active)

Question: What about the AC50 [9] of the same molecule?
Answer: 9.24 µM (active)

Question: Which results are given for `Cc1cc(C(=O)OCC(=O)c2ccc(Br)s2)c(C)o1`?
Answer: EC50 [1]: 14.6 µM (not active); EC50 [2]: > 79.4 µM (not active); EC50 [4]: > 79.4 µM (inactive)

Question: With `CC(C)(C)C(=O)c1cnc(Nc2ccccc2Cl)s1` as the molecule, how does the AC50 [10] read?
Answer: 121 µM (active)

Question: Which AC50 [11] does the source give for `CC1CCN(C(=O)/C(=C\c2cccs2)NC(=O)c2ccccc2)CC1` here?
Answer: > 350 µM (inactive)

Question: For `N#Cc1cc(C#N)c(N2CCN(c3ccccn3)CC2)nc1N`, which AC50 [10] is on record?
Answer: 31.7 µM (active)

Question: Which AC50 [12] does the source give for `O=C1CCCc2ccccc2N1Cc1cccc(Cl)c1` here?
Answer: inconclusive

Question: Which EC50 [13] does the source give for `O=C(Nc1ccc(-c2nc3ccccc3o2)cc1)c1ccc(N2CCOCC2)c([N+](=O)[O-])c1` here?
Answer: 1.93 µM (active)

Question: What about the EC50 [14] of the same molecule?
Answer: > 60 µM (not active)

Question: What about the AC50 [15] of the same molecule?
Answer: 5.18 µM (active)

Question: What about the AC50 [16] of the same molecule?
Answer: 3.62 µM (active)

Question: And the AC50 [17]?
Answer: 3.35 µM (active)

Question: And the AC50 [18]?
Answer: 11.2 µM (inconclusive)

Question: What about the AC50 [3] of the same molecule?
Answer: 2.82 µM (inconclusive)

Question: And the AC50 [19]?
Answer: > 70 µM (inactive)

Question: With `Cc1cccc2sc(NC(=O)C3CCCN(S(=O)(=O)c4cccc5nonc45)C3)nc12` (configuration not stated) as the molecule, how does the IC50 [20] read?
Answer: > 100 µM (inactive)

Question: And the IC50 [21]?
Answer: 25.9 µM (active)

Question: And the IC50 [22]?
Answer: 26.2 µM (active)

Question: With `CC(=O)c1sc(N/N=C/c2cccc(O)c2)nc1C` as the molecule, how does the AC50 [10] read?
Answer: 77.2 µM (active)

Question: What about the EC50 [23] of the same molecule?
Answer: 6.61 µM (active)

Question: What about the EC50 [24] of the same molecule?
Answer: 8.4 µM (active)

Question: What about the EC50 [25] of the same molecule?
Answer: 23.2 µM (active)

Question: For `Cc1cc(SCC(=O)N/N=C/c2ccco2)nc2ccccc12`, which IC50 [26] is on record?
Answer: 57.4 µM (inactive)
